The values below come from BindingDB's records for doi:10.1016/S0960-894X(97)00161-3 (1997).

Each structure is given as a SMILES string.

A short description of assay [1]: Compound was tested for inhibition against Creatine kinase (CK).
Assay [2] in a line: Compound was tested for inhibition against Creatine kinase(CK).

For `CN(CC(=O)O)C(=N)CP(=O)(O)O` [Phosphocreatine analogue], the Ki (usually a dissociation constant, usually derived from enzyme kinetics or from competition with a known ligand) in assay [1] worked out at 1.4 mM.
In turn, `N=C(CP(=O)(O)O)NCC(=O)O` [Phosphocreatine analogue] returned a Ki in assay [2] of 5.7 mM.
As to `N=C(CP(=O)(O)O)NCCC(=O)O` [Phosphocreatine analogue], in assay [1], the Ki worked out at 37 mM.
